{"source": "patent US9555014B2", "about": "“Therapeutic regimens” (Radius Health, Inc., priority 2010, dated 2017)", "key": {"[1]": {"test": "Phase 2a study: trough and peak plasma drug levels", "type": "in vivo, human (postmenopausal women)", "details": "for concentration at 8 day / concentration at 15 day / concentration at 29 day: female, human, plasma; for concentration at 29 day: Day 29, ITT", "excerpt": "This is a randomized, placebo-controlled, double-blind, parallel-group, Phase 2, multi-center, dose-finding study to evaluate the effects of (R)-6-(2-(ethyl(4-(2-(ethylamino)ethyl)benzyl)amino)-4-methoxyphenyl)-5,6,7,8-tetrahydronaphthalen-2-ol dihydrochloride in the treatment of vasomotor symptoms in postmenopausal women.\nA total of 100 eligible patients will be randomized to receive one of 5 blinded treatment regimens. (R)-6-(2-(ethyl(4-(2-(ethylamino)ethyl)benzyl)amino)-4-methoxyphenyl)-5,6,7,8-tetrahydronaphthalen-2-ol dihydrochloride at doses 0, 10, 25, 50 or 100 mg will be dosed for 28-days.\n(R)-6-(2-(ethyl(4-(2-(ethylamino)ethyl)benzyl)amino)-4-methoxyphenyl)-5,6,7,8-tetrahydronaphthalen-2-ol dihydrochloride was provided by sponsor in capsule form for oral administration. All doses (0, 10, 25, 50 and 100 mg) were provided as identical presentations. Each patient was provided with 2 containers of 28-capsules each at the start of treatment and took one capsule from each container every day for 28-days. Placebo contained the same excipients as active medication, but without (R)-6-(2-(ethyl(4-(2-(ethylamino)ethyl)benzyl)amino)-4-methoxyphenyl)-5,6,7,8-tetrahydronaphthalen-2-ol dihydrochloride. The patients were instructed to take the capsules orally in the fasted state (morning).\nAll efficacy endpoints were to be analyzed for the ITT and PP populations, with the exception of the drug levels (analyzed for the ITT population only). Safety endpoints were to be analyzed for the Safety/ITT population.\nValues for ranges of steady state trough levels and steady state Cmax can be derived from Tables 4 and 5. Steady state values are the values listed for days 8 and 15. The ranges were derived from the mean number listed in the table plus or minus one standard deviation (the number in parenthesis after each mean value). For example a steady state trough level ranging from 0.11 ng/mL to 0.79 ng/mL is derived from Table 4 by taking the trough level for 10 mg, 0.45 ng/mL, adding 0.34 to get the upper value of 0.79 and subtracting 0.34 to get the lover value of 0.11. Other ranges for steady state trough levels and ranges for Cmax can be similarly derived from the data in Tables 4 and 5."}, "endometrium": {"system": "endometrium", "test": "Preclinical rat models measuring estrogenic agonist effects on the endometrium", "type": "in vivo", "excerpt": "The results of a phase 2a clinical study assessing the effects of the selective estrogen receptor modulator (SERM) (R)-6-(2-(ethyl(4-(2-(ethylamino)ethyl)benzyl)amino)-4-methoxyphenyl)-5,6,7,8-tetrahydronaphthalen-2-ol on women suffering from hot flushes are reported herein."}}, "note": "Structures can show the parent of a compound that is named as a salt. Where two headings read alike, the source gives them in different places."}
{"molecule": "CCNCCc1ccc(CN(CC)c2cc(OC)ccc2[C@@H]2CCc3cc(O)ccc3C2)cc1", "note": "[drug, (R)-6-(2-(ethyl(4-(2-(ethylamino)ethyl)benzyl)amino)-4-methoxyphenyl)-5,6,7,8-tetrahydronaphthalen-2-ol dihydrochloride]", "values": [{"measurement": "Peak Level of drug", "setting": "[1]; 10 mg daily PO, Day 1, ITT, mean (SD)", "value": "0.56 (0.34) ng/mL"}, {"measurement": "Peak Level of drug", "setting": "[1]; 10 mg daily PO, Day 8, ITT, mean (SD)", "value": "0.92 (0.52) ng/mL"}, {"measurement": "Peak Level of drug", "setting": "[1]; 10 mg daily PO, Day 15, ITT, mean (SD)", "value": "0.92 (0.69) ng/mL"}, {"measurement": "Peak Level of drug", "setting": "[1]; 25 mg daily PO, Day 1, ITT, mean (SD)", "value": "1.41 (0.63) ng/mL"}, {"measurement": "Peak Level of drug", "setting": "[1]; 25 mg daily PO, Day 8, ITT, mean (SD)", "value": "2.53 (0.74) ng/mL"}, {"measurement": "Peak Level of drug", "setting": "[1]; 25 mg daily PO, Day 15, ITT, mean (SD)", "value": "2.97 (1.09) ng/mL"}, {"measurement": "Peak Level of drug", "setting": "[1]; 50 mg daily PO, Day 1, ITT, mean (SD)", "value": "2.83 (1.72) ng/mL"}, {"measurement": "Peak Level of drug", "setting": "[1]; 50 mg daily PO, Day 8, ITT, mean (SD)", "value": "6.36 (2.58) ng/mL"}, {"measurement": "Peak Level of drug", "setting": "[1]; 50 mg daily PO, Day 15, ITT, mean (SD)", "value": "6.22 (3.46) ng/mL"}, {"measurement": "Peak Level of drug", "setting": "[1]; 100 mg daily PO, Day 1, ITT, mean (SD)", "value": "8.39 (4.04) ng/mL"}, {"measurement": "Peak Level of drug", "setting": "[1]; 100 mg daily PO, Day 8, ITT, mean (SD)", "value": "15.47 (7.14) ng/mL"}, {"measurement": "Peak Level of drug", "setting": "[1]; 100 mg daily PO, Day 15, ITT, mean (SD)", "value": "12.76 (5.28) ng/mL"}, {"measurement": "concentration at 8 day", "setting": "[1]; oral, 10 mg, derived from Table 4 (0.45 ± 0.34, Day 8), read-out: steady state trough level range (mean plus or minus one standard deviation)", "value": "0.11 to 0.79", "unit": "ng/mL"}, {"measurement": "concentration at 8 day", "setting": "[1]; 10 mg daily PO, Day 8, ITT, mean (SD), read-out: Mean Trough Level of Drug", "value": 0.45, "unit": "ng/mL"}, {"measurement": "concentration at 15 day", "setting": "[1]; 10 mg daily PO, Day 15, ITT, mean (SD), read-out: Mean Trough Level of Drug", "value": 0.49, "unit": "ng/mL"}, {"measurement": "concentration at 29 day", "setting": "[1]; 10 mg daily PO, mean (SD), read-out: Mean Trough Level of Drug", "value": 0.34, "unit": "ng/mL"}, {"measurement": "concentration at 8 day", "setting": "[1]; 25 mg daily PO, Day 8, ITT, mean (SD), read-out: Mean Trough Level of Drug", "value": 1.33, "unit": "ng/mL"}, {"measurement": "concentration at 15 day", "setting": "[1]; 25 mg daily PO, Day 15, ITT, mean (SD), read-out: Mean Trough Level of Drug", "value": 1.49, "unit": "ng/mL"}, {"measurement": "concentration at 29 day", "setting": "[1]; 25 mg daily PO, mean (SD), read-out: Mean Trough Level of Drug", "value": 1.18, "unit": "ng/mL"}, {"measurement": "concentration at 8 day", "setting": "[1]; 50 mg daily PO, Day 8, ITT, mean (SD), read-out: Mean Trough Level of Drug", "value": 3.11, "unit": "ng/mL"}, {"measurement": "concentration at 15 day", "setting": "[1]; 50 mg daily PO, Day 15, ITT, mean (SD), read-out: Mean Trough Level of Drug", "value": 3.39, "unit": "ng/mL"}, {"measurement": "concentration at 29 day", "setting": "[1]; 50 mg daily PO, mean (SD), read-out: Mean Trough Level of Drug", "value": 3.23, "unit": "ng/mL"}, {"measurement": "concentration at 8 day", "setting": "[1]; 100 mg daily PO, Day 8, ITT, mean (SD), read-out: Mean Trough Level of Drug", "value": 6.91, "unit": "ng/mL"}, {"measurement": "concentration at 15 day", "setting": "[1]; 100 mg daily PO, Day 15, ITT, mean (SD), read-out: Mean Trough Level of Drug", "value": 6.66, "unit": "ng/mL"}, {"measurement": "concentration at 29 day", "setting": "[1]; 100 mg daily PO, mean (SD), read-out: Mean Trough Level of Drug", "value": 6.03, "unit": "ng/mL"}, {"measurement": "estrogen agonist stimulation effects on the endometrium", "setting": "endometrium", "value": "negligible estrogen agonist stimulation effects"}]}
